Experimental data taken from article PMC2784989 (Journal of medicinal chemistry, 2009).

Tests used:
Tdp1 [1] = settings: ref [28], [29]; cited from earlier work
recombinant Tdp1 [2] = molecular target: T1, recombinant Tdp1 (Homo sapiens, UniProt Q9NUW8); test: Tdp1 gel-based assay; type: biochemical; settings: single-stranded N14Y substrate
recombinant Tdp1 [3] = molecular target: T1, recombinant Tdp1; test: Surface plasmon resonance direct binding; settings: ten successive 2-fold dilutions from 100 μM
[4] = test system: CPT-induced Top1-DNA cleavage complexes; test: Immunocomplex of enzyme; type: cell-based; settings: data not shown
[5] = molecular target: apurinic/apyrimidinic endonuclease (APE1) (Homo sapiens, UniProt P27695); test: APE1 counter-screen gel-based assay; type: biochemical; settings: up to 100 μM
Sequence of apurinic/apyrimidinic endonuclease (APE1) (P27695 whole entry): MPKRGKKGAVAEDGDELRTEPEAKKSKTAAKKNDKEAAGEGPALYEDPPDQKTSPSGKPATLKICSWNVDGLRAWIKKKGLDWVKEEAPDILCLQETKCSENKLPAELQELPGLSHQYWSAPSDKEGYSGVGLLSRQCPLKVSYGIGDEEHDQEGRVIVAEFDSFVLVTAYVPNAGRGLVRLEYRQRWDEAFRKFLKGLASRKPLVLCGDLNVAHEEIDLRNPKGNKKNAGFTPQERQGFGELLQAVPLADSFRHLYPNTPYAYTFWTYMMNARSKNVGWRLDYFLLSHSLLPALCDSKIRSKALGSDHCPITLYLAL

HCT116 cells = test: Cellular studies alone and in combination with CPT; type: cell-based; settings: data not shown
Tdp1 [6] = settings: NCI-DTP diversity set screen; ref [31]; cited from earlier work
human Top1 = molecular target: T2, human Top1 (Homo sapiens, UniProt P11387); test: Top1 DNA relaxation counter-screen assay; type: biochemical; settings: up to 100 μM
T2 sequence (P11387 1-765): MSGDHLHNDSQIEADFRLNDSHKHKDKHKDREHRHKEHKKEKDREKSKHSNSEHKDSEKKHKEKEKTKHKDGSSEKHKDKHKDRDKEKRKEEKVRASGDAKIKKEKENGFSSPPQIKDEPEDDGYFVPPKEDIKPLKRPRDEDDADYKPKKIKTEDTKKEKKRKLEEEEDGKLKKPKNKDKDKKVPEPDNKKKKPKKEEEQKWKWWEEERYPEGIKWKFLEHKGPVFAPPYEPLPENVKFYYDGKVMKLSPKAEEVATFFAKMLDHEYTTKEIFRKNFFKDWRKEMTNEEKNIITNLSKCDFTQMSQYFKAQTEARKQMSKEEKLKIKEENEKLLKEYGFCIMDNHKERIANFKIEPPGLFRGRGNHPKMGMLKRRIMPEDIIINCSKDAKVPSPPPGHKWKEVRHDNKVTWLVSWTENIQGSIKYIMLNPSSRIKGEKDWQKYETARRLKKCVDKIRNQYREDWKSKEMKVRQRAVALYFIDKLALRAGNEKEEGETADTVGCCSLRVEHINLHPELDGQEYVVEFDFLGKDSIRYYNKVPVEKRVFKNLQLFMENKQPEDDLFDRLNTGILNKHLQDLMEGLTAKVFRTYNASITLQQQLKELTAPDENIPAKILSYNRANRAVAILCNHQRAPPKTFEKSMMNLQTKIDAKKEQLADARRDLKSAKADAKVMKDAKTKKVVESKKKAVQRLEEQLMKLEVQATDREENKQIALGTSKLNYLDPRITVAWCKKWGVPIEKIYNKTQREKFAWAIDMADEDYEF

[7] = molecular target: Tdp1 H493R (SCAN1 mutant) (Homo sapiens, UniProt Q9NUW8, H493R); test: SCAN1 mutant gel assay of Tdp1-DNA covalent complex formation; type: biochemical; settings: 100 nM H493R; DNA sequencing and protein SDS-PAGE gels
Sequence of Tdp1 H493R (SCAN1 mutant) (Q9NUW8 whole entry H493R): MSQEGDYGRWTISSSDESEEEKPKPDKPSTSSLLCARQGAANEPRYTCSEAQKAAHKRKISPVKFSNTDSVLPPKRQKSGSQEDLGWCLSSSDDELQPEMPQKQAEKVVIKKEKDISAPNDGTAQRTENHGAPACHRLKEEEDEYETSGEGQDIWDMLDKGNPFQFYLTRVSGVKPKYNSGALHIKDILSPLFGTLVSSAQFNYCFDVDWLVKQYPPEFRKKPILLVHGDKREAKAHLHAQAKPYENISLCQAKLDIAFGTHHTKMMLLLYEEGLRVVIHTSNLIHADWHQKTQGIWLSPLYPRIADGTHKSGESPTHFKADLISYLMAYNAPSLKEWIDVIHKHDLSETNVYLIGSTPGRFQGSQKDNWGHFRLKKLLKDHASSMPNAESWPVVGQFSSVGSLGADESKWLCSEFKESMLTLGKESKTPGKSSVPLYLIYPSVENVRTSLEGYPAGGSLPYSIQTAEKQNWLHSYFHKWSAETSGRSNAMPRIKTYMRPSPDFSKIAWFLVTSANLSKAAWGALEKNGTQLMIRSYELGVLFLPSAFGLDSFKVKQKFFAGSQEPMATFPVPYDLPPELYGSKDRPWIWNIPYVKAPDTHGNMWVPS

T1 sequence (Q9NUW8 whole entry): as the sequence (Q9NUW8 whole entry H493R) above, with R493H counted along it

[O]=[V]([O-])([O-])[O-] [vanadate]
concentration at which Tdp1 is inhibited (Tdp1 [1]): millimolar concentrations

[O]=[W](=[O])([O-])[O-] [tungstate]
concentration at which Tdp1 is inhibited (Tdp1 [1]): millimolar concentrations

C[C@]12CC[C@H]3[C@@H](CCC4=CC(=O)CC[C@@]43C)[C@@H]1CC[C@@H]2C(=O)COS(C)(=O)=O [compound 7]
Tdp1 inhibitory activity (in words) (recombinant Tdp1 [2]): minimally active | binding to surface-bound Tdp1 (SPR) (recombinant Tdp1 [3]): No interaction

C[C@]12CC[C@H]3[C@@H](CCC4=CC(=O)CC[C@@]43C)[C@@H]1CC[C@@H]2C(=O)COS(=O)(=O)c1ccc(Br)cc1 [compound 1, 4-Pregnen-21-ol-3,20-dione-21-(4-bromobenzenesufonate)]
enhancement of CPT-induced Top1-DNA cleavage complexes [4]: did not observe an enhancement | inhibition of APE1 [5]: No evidence for inhibition | effect in combination with camptothecin in HCT116 cells (HCT116 cells): only an additive effect | activity by itself in HCT116 cells (HCT116 cells; up to 25 μM): limited activity | inhibitory activity against Tdp1 in high-throughput screen (Tdp1 [6]): low micromolar concentrations | inhibition of human Top1 (DNA relaxation) (human Top1): No evidence for inhibition | binding to surface-bound Tdp1 (SPR) (recombinant Tdp1 [3]): direct binding | formation of Tdp1-DNA covalent complexes by H493R mutant [7]: concentration-dependent decrease

CC(=O)[C@H]1CC[C@H]2[C@@H]3CCC4=CC(=O)CC[C@]4(C)[C@H]3CC[C@]12C [progesterone, reference compound]
Tdp1 inhibitory activity (in words) (recombinant Tdp1 [2]): weakly active
